Assay results: US9814778B2, “Ionically crosslinked polyelectrolytes as underwater adhesives as controlled release vehicles” (The University of Toledo, priority 2014, dated 2017)

How the values were obtained:
[1] = Dye loading efficiency and loading capacity of dye-loaded coacervates (UV-Vis of supernatant); type: physicochemical
Description: All solutions were adjusted to pH 7 using HCl and NaOH prior to mixing. The mixtures were than centrifuged at 15,000 rpm for 90 min using an Ependorf centrifuge. […] The loading capacity (LC) and loading efficiency (LE) for each loading procedure was calculated by subtracting the mass of dye in the supernatant from the total mass of dye originally in the solutions in the microcentrifuge tubes. The total dye mass in the supernatant was determined by measuring the supernatant mass in each tube and determining the supernatant dye concentration using UV-Vis spectroscopy (Varian Cary 50 Spectrophotometer) and the absorbance at a wavelength of 614 nm (ε=9.57×103 m2/mol) and 555 nm (ε=9.82×103 m2/mol) for Fast Green FCF and Rhodamine B, respectively. The LC and LE were then calculated using the following equations: […]
Similarly, the LEs of the dye-loaded complexes was measured at a constant initial dye concentration of 1 mg/ml while the PAH concentration was varied. The dye-loaded complex samples were prepared as outlined above; however, the PAH concentration was varied (between 2.5 and 10.0 wt %). […] The LC- and LE-values were then determined using Equations 1 and 2.

[2] = system: PAH/PPi complexes; test: Isothermal titration calorimetry of dyes into PAH/PPi dispersion; type: binding; settings: pH 7
Description: (§1) The Fast Green FCF and Rhodamine B solutions were then prepared at concentrations of 0.43 and 0.80 wt %, respectively. All solutions were adjusted to pH 7 using HCl and NaOH. ITC experiments were run by placing the PAH/PPi or PAH/TPP complex solutions in the sample cell, and loading the dye solution into the injector. The dye solutions were then titrated using twenty 15-μL injections, with 20 min equilibration intervals between each injection. The contents of the sample cell were stirred at 307 rpm with the impeller-shaped injector tip. The instrument software was used to integrate the raw ITC data obtained from these titrations. The heat of dilution, which was obtained by titrating the dye solutions into DI water, was then subtracted from the integrated data to obtain the final thermograms. To ensure reproducibility, each ITC test was repeated twice.
(§2) Fast Green FCF and Rhodamine B are anionic and cationic, respectively. ITC was used to probe the binding of these dye molecules to the ionically crosslinked networks. In ITC the heat required to maintain a sample cell (which contains a binding substrate solution) at a constant temperature upon the addition of a binding ligand solution is measured, with endothermic or exothermic peaks in the ITC raw data indicating binding. […]

[3] = system: PAH/TPP complexes; test: Isothermal titration calorimetry of dyes into PAH/TPP dispersion; type: binding; settings: pH 7
Description: as §1, §2

[4] = in solution; cited from earlier work
[5] = Dye release from dye-loaded complexes in 1×PBS at 37° C. (UV-Vis); type: physicochemical; settings: PAH/PPi and PAH/TPP complexes, 7-8 mm plugs, time span of up to 164 days
Description: The supernatant was removed from the microcentrifuge tube, and the inside of the tube was rinsed with DI water to ensure all excess supernatant was removed. The release medium, 1 ml of 1×PBS, was then added to the microcentrifuge tube. During the release evaluations, the contents of the microcentrifuge tube was mixed at 400 rpm in an Ependorf Thermomixer at 37° C. The old PBS solution was replaced with fresh PBS daily. UV-Vis spectroscopy was used to determine the amount of dye released within this one day interval. The concentration of dye in the PBS was determined using the absorbance of the solution as described above. These release studies were run until the amount of dye released in one day became so low that a discernable peak in the UV-Vis spectrum could not be obtained. The weight of the adhesives was also tracked during the release process using the procedure described above. Each release experiment was repeated thrice to ensure reproducibility. An additional release study was run (using the same complex/dye compositions) with tap water at room temperature as the release medium.
The released dye concentration in the PBS was determined using UV-Vis spectroscopy, with the PBS being replaced daily. This procedure was repeated until discernable UV-Vis peaks could no longer be obtained from the PBS samples in order to obtain release profiles. […]

[6] = PAH/PPi, initial dye 0.5 mg/ml, 10.0 wt % PAH
[7] = PAH/PPi, initial dye 1 mg/ml, 5% PAH
[8] = PAH/PPi, initial dye 1 mg/ml, 10% PAH
[9] = PAH/PPi, initial dye 1 mg/ml, 10.0 wt % PAH
[10] = PAH/PPi, initial dye 4 mg/ml, 10.0 wt % PAH
[11] = PAH/TPP, initial dye 0.5 mg/ml, 10.0 wt % PAH
[12] = PAH/TPP, initial dye 1 mg/ml, 5% PAH
[13] = PAH/TPP, initial dye 1 mg/ml, 10% PAH
[14] = PAH/TPP, initial dye 1 mg/ml, 10.0 wt % PAH
[15] = PAH/TPP, initial dye 4 mg/ml, 10.0 wt % PAH

Compound | Loading Capacity [1, 6] | Loading Efficiency [1, 6] | Loading Efficiency [1, 7] | Loading Efficiency [1, 8] | Loading Capacity [1, 9] | Loading Capacity [1, 10] | Loading Efficiency [1, 10] | Loading Capacity [1, 11] | Loading Efficiency [1, 11] | Loading Efficiency [1, 12] | Loading Efficiency [1, 13] | Loading Capacity [1, 14] | Loading Capacity [1, 15] | Loading Efficiency [1, 15] | binding to the ionically crosslinked network (ITC) [2] | binding to the ionically crosslinked network (ITC) [3] | other results
CCN(CC)c1ccc2c(-c3ccccc3C(=O)O)c3ccc(=[N+](CC)CC)cc-3oc2c1.[Cl-] [Rhodamine B] | 0.55 ± 0.16 mg/mL | 9.83 ± 2.79% | 3.76 ± 0.45% | 6.38 ± 0.79% | 0.71 ± 0.09 mg/mL | 3.46 ± 1.24 mg/mL | 7.76 ± 2.77% | 0.45 ± 0.11 mg/mL | 8.71 ± 2.10% | 3.78 ± 0.32% | 6.27 ± 1.04% | 0.65 ± 0.11 mg/mL | 2.74 ± 0.58 mg/mL | 6.62 ± 1.41% | binds only very weakly and non-cooperatively | binds only very weakly and non-cooperatively | Loading Efficiency ([1]; PAH/PPi, initial dye 1 mg/ml, 2.5% PAH): 1.49 ± 0.30%; Loading Efficiency ([1]; PAH/TPP, initial dye 1 mg/ml, 2.5% PAH): 1.59 ± 0.65%
tripolyphosphate [TPP] | – | – | – | – | – | – | – | – | – | – | – | – | – | – | – | – | pKa,3 [4]: 2.8; pKa,4 [4]: 6.5; pKa,5 [4]: 9.2
CCN(Cc1cccc(S(=O)(=O)[O-])c1)c1ccc(C(=C2C=CC(=[N+](CC)Cc3cccc(S(=O)(=O)[O-])c3)C=C2)c2ccc(O)cc2S(=O)(=O)[O-])cc1.[Na+].[Na+] [Fast Green, Fast Green FCF] | 3.16 ± 0.17 mg/mL | 56.48 ± 3.04% | 61.69 ± 1.13% | 63.03 ± 1.37% | 7.04 ± 0.15 mg/mL | 30.62 ± 0.93 mg/mL | 68.54 ± 2.09% | 3.31 ± 0.07 mg/mL | 64.01 ± 1.45% | 72.40 ± 0.53% | 72.94 ± 3.09% | 7.54 ± 0.32 mg/mL | 30.89 ± 1.43 mg/mL | 74.74 ± 3.47% | strong cooperative binding | strong cooperative binding | fraction of payload released [5]: < 5%
